# According to US11684614B2, “Formulations of hydroxypyridonate actinide/lanthanide decorporation agents” (priority 2017, dated 2023):
# Columns and labels:
# [1] = Plasma protein binding, rat; assay type: in vitro ADME; details: tested at 10 μg/ml
# Procedure: (§1) Plasma protein binding differed across species; it was greatest in dog (95%), intermediate in human (29%), and lowest in rat (5%) when tested at 10 μg/ml.
# [2] = 28-day oral gavage study in Sprague Dawley rats (SRI No. M512-07); assay type: in vivo
# [3] = Plasma protein binding, human; assay type: in vitro ADME; details: tested at 10 μg/ml
# Procedure: as §1
# [4] = Double-Sink PAMPA permeability assay with permeation enhancers (flux ratio); assay type: in vitro ADME; details: compared with reference compound Ranitidine
# Procedure: The objective of the analytical study described in Part C of this report was to assess the feasibility of enhancing the permeability of the active pharmaceutical ingredient 3,4,3-L1(1,2-HOPO) using oral permeation enhancers. Evaluation was performed using an in vitro pK assay based on the Double-Sink™ PAMPA technology developed by pION, Inc.
# The permeability enhancement study was performed in two stages. In the first stage (TABLE 10.1), 15 formulations were prepared and screened. The second stage (TABLE 10.2) was performed to refine the concentrations of the permeability enhancers that seemed to display permeability enhancement in the first screening. The screening conditions for both stages are listed below. The sample solutions were stored throughout the study in 20 mL clear scintillation glass vials with polypropylene cap and pulp foil liner, wrapped in aluminum foil.
# • Test Solutions: Vehicles containing the permeation enhancers were prepared by weighing the adequate quantity of enhancer and dissolving it into 100 mL of purified water to reach the designated concentration. Test solutions were then prepared by weighing 10 mg of 3,4,3-L1(1,2-HOPO), dissolving it into 10 mL of each of the vehicles to reach a concentration of 1 mg/mL (purified water was used for the control solution). The final pH and clarity of each solution were recorded. […]
# CYP3A4 = CYP3A4 (Homo sapiens, UniProt P08684); assay: CYP inhibition; assay type: in vitro ADME
# Sequence of CYP3A4 (P08684 whole entry): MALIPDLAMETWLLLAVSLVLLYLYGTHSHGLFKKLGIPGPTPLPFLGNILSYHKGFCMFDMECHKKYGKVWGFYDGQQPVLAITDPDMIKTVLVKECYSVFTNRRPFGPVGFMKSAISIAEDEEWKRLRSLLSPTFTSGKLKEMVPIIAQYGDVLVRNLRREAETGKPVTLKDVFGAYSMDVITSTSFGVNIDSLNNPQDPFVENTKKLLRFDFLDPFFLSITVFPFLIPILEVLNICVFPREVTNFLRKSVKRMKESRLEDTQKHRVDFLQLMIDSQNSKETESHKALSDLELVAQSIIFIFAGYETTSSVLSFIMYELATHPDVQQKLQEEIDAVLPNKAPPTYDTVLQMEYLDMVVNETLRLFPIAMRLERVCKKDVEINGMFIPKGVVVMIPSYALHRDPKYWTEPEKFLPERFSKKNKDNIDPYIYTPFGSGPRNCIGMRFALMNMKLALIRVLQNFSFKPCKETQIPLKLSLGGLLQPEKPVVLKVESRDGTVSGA
# CYP2C9 = CYP2C9 (Homo sapiens, UniProt P11712); assay: CYP inhibition; assay type: in vitro ADME
# Sequence of CYP2C9 (P11712 whole entry): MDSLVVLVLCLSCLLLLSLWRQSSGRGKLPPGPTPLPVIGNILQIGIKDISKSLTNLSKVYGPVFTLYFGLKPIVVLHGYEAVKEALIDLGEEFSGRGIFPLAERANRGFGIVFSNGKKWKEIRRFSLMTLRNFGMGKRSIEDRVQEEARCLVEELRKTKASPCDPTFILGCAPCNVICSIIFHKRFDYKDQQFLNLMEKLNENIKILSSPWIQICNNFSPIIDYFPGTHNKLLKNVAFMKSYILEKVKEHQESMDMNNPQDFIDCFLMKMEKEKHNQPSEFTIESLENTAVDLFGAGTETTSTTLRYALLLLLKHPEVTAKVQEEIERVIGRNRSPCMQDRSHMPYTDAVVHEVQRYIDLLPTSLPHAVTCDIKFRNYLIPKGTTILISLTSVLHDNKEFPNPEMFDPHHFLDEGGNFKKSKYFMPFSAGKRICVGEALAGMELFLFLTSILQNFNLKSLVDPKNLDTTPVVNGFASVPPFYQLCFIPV
# [5] = Plasma protein binding, dog; assay type: in vitro ADME; details: tested at 10 μg/ml
# Procedure: as §1
# [6] = Non-GLP 7-day repeat dose beagle dog study, safety findings (SRI No. B677-13); assay type: in vivo, beagle dogs
# Excerpt: Clinical observations that were associated with test article administration included post-dose diarrhea and emesis. Specifically, dogs in the mid- and high-dose groups experienced slight or extreme diarrhea on Day 1 between 1 and 6 hr post-dose. Diarrhea was absent from the lowdose group. […] By Day 2, 8 of the 9 affected dogs were normal, with the exception of one highdose group female that had continued slight diarrhea. Slight to moderate emesis occurred <2 hr post-dose (and oftentimes <1 hr post-dose) in 1-3 dogs from each of the 3,4,3-L1(1,2-HOPO) treatment groups and in none of the vehicle control-treated dogs. Post-dose emesis appeared to be dose-dependent since it occurred in 0, 1, 2, and 3 dogs out of 12 dogs per group in control, low, mid, and high dose groups, respectively. Post-dose emesis is a common response to oral dose administration in dogs, and a single occurrence of it in the low dose group could be […] rather than test article-related and is not considered a dose-limiting event. Slight post-dose emesis in this one male dog was the only finding present in the 37.5 mg/kg lowdose treatment group.
# No similar renal histopathology findings were found in any of the other on-study dogs. The observation of hemosiderin without fibrosis in the kidney sections from this one dog is consistent with the renal findings having developed within one to three days prior to the Day 15 necropsy. This dog also had corresponding small increases (1.8- and 1.3-fold, respectively) in the renal function markers BUN and CR on Day 15 relative to pre-test. The timing of the renal findings in this recovery group dog is surprising given the fact that 3,4,3-L1(1,2-HOPO) was administered only on Day 1. Therefore, it is unclear if these renal findings are related specifically to high-dose administration of 3,4,3-L1(1,2-HOPO). There were no toxicologically meaningful histopathology findings in any of the dogs on Day 2 or in any of the other dogs on Day 15. Similar renal findings were also absent from the non-GLP 7-day repeat dose dog study (SRI No. B677-13) where 2 dogs/sex received formulated material at higher doses for 4 days followed by equivalent doses for 3 days and then were sacrificed on Day 8.
# An evaluation of the serum levels of iron, unsaturated iron binding capacity, total iron binding capacity, magnesium, and ferritin were included in the clinical pathology analysis during the dog safety studies because 3,4,3-L1(1,2-HOPO) is a potent metal chelator.
# [7] = after treatment, 2 dogs/sex, no control group
compound,measurement,setting,value
"O=C(NCCCN(CCCCN(CCCNC(=O)c1cccc(=O)n1O)C(=O)c1cccc(=O)n1O)C(=O)c1cccc(=O)n1O)c1cccc(=O)n1O [3,4,3-L1(1,2-HOPO)]",Plasma protein binding,[1],5%
same,renal findings,[2]; 28 days of oral gavage,no renal findings
same,soft stools or diarrhea,[2]; oral gavage 7.7-76.9 mg/kg (10-102 μmol/kg) for 28 days,not observed
same,Plasma protein binding,[3],29%
same,permeability (PAMPA),[4],very low permeability
same,inhibition of CYP3A4 activity,CYP3A4,did not inhibit
same,inhibition of CYP2C9 activity,CYP2C9,did not inhibit
same,Plasma protein binding,[5],95%
same,renal findings,"[6]; 7-day repeat dose, sacrificed on Day 8",absent
same,decrease in unsaturated iron binding capacity,[6]; [7],16-62%
same,increase in serum total iron levels compared with pretest,[6]; [7],~2 fold
same,emesis and diarrhea,"[6]; formulated capsules once daily for 7 days, 75.1, 150, or 300 mg/kg, ~1 hr post-dose","dose dependent, transient emesis and diarrhea"
